For five compounds, TGI and GI50 results are on record in PubChem BioAssay (NCI).

Test systems include A549 NSCLC; DU-145 prostate; MALME-3M melanoma; MDA-MB-231 breast; OVCAR-4 ovarian; RPMI-8226 leukemia; SF-268 CNS; SF-295 CNS; SNB-19 CNS; U251 CNS.
Experiment in all cases: DTP human tumour cell line panel, 48 h

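Tested at 5 concentrations; 48 h exposure; 96-well plates; endpoints linearly interpolated, else capped at highest concentration. GI50 = concentration required for 50% inhibition of growth. TGI: concentration producing complete growth inhibition.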

In general, TGI refers to the concentration at which net growth stops. Take `O=C1CC2CCC(C1)S2=O` (stereo unspecified): the TGI in the test with A549 NSCLC, with DU-145 prostate, in the test with MALME-3M melanoma, in the test on MDA-MB-231 breast, in the test on OVCAR-4 ovarian and with RPMI-8226 leukemia was above 100 µM each time. Moreover, the TGI with SF-268 CNS, with SF-295 CNS, in the test with SNB-19 CNS and in the test on U251 CNS was above 100 µM in each case.
For `Cc1ccc(-n2cc([Si](C)(C)C)nn2)s1`, the TGI with A549 NSCLC, with DU-145 prostate, in the test on MALME-3M melanoma, in the test on MDA-MB-231 breast, with OVCAR-4 ovarian and with RPMI-8226 leukemia was above 100 µM throughout. Moreover, the TGI with SF-268 CNS, in the test on SF-295 CNS, in the test with SNB-19 CNS and in the test with U251 CNS was above 100 µM throughout.
`CN1CCN(C2=CC(=O)c3c(O)ccc(O)c3C2=O)CC1`: the total growth inhibition concentration (TGI) was determined as 3.5 µM with A549 NSCLC; 3.13 µM in the test with DU-145 prostate; 0.592 µM in the test on MALME-3M melanoma; 3.1 µM in the test on MDA-MB-231 breast; 3.46 µM with OVCAR-4 ovarian; 6.25 µM with RPMI-8226 leukemia. The TGI in the test on SF-268 CNS came out at 2.93 µM; with SF-295 CNS it was 3.09 µM; in the test with SNB-19 CNS, 3.05 µM; with U251 CNS, 2.97 µM.
One may read the GI50 as the concentration that inhibits growth by half. For `Brc1ccc2c(-c3csc(-c4c[nH]c5ccccc45)n3)c[nH]c2c1`, the TGI was found to be 29.2 µM with A549 NSCLC; 32.9 µM in the test with DU-145 prostate; 31 µM in the test on MALME-3M melanoma; 31 µM in the test with MDA-MB-231 breast; 39.8 µM with OVCAR-4 ovarian; 46.6 µM with RPMI-8226 leukemia. The TGI with SF-268 CNS was determined as 34.5 µM; in the test with SF-295 CNS, 29.5 µM; in the test with SNB-19 CNS, 31.7 µM; in the test with U251 CNS it was 31.7 µM. Besides, in the test with SF-295 CNS, the GI50 was 14.6 µM.
As for `Cc1sc2nc3n(c(=O)c2c1C)N=CN(c1ccc(F)cc1)C3`, the TGI was above 100 µM in the test on A549 NSCLC; above 100 µM in the test on DU-145 prostate; 57.2 µM in the test on MALME-3M melanoma; above 100 µM in the test with MDA-MB-231 breast; 38.5 µM in the test on OVCAR-4 ovarian; above 100 µM in the test on RPMI-8226 leukemia. Also, the TGI with SF-268 CNS, with SF-295 CNS, in the test with SNB-19 CNS and with U251 CNS was above 100 µM each time.
